This passage reports EC50 results from patent US10815222B2, “Compounds for use in the treatment of kinetoplastid infection” (C.N.C.C.S. S.c.a.r.l. COLLEZIONE NAZIONALE DEI COMPOSTI …, priority 2016, dated 2020).

A value given as a limit tells only on which side of the number the result lay.

For this assay, the system named is Bloodstream form of Trypanosoma brucei, strain Lister 427. Briefly: Trypanosoma brucei growth inhibition assay (CellTiter-Glo, 24 h). The class given is cell-based. To be noted: Trypanosoma brucei; T. Brucei Growth Inibition Assay, class symbols; read-out: T. Brucei GI EC50. In short, it runs like this: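 Growth read-out was CellTiter-Glo luminescence after 24 h at 37 °C incubation of 1500 bloodstream-form Lister 427 trypanosomes per well with compound, in supplemented IMDM containing 10% FBS and at most 0.25% DMSO.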
For orientation: EC50 means the concentration at which the effect is half-maximal. With `COc1ccc2nc(C(F)(F)F)n(CC(=O)N3CC[C@H](NC4CCOC4)C[C@H]3c3ncc(-c4cc5ccccc5nc4OC)[nH]3)c2c1` (stereo partly drawn) [2-(6-methoxy-2-(trifluoromethyl)-1H-benzo[d]imidazol-1-yl)-1-((2S,4S)-2-(5-(2-methoxyquinolin-3-yl)-1H-imidazol-2-yl)-4-((tetrahydrofuran-3-yl)amino)piperidin-1-yl)ethan-1-one], the EC50 is below 0.1 µM.

On to `COc1nc2ccccc2cc1-c1cnc([C@@H]2CN(Cc3ccn(C)n3)CCN2C(=O)Cn2c(C(F)(F)F)nc3ccccc32)[nH]1` [(S)-1-(2-(5-(2-methoxyquinolin-3-yl)-1H-imidazol-2-yl)-4-((1-methyl-1H-pyrazol-3-yl)methyl)piperazin-1-yl)-2-(2-(trifluoromethyl)-1H-benzo[d]imidazol-1-yl)ethan-1-one], for which the EC50 is below 0.1 µM.

For `COc1ccc2nc(C(F)(F)F)n(CC(=O)N3CCN(Cc4cscn4)C[C@H]3c3ncc(-c4cc5ccccc5nc4OC)[nH]3)c2c1` [(S)-2-(6-methoxy-2-(trifluoromethyl)-1H-benzo[d]imidazol-1-yl)-1-(2-(5-(2-methoxyquinolin-3-yl)-1H-imidazol-2-yl)-4-(thiazol-4-ylmethyl)piperazin-1-yl)ethan-1-one], the EC50 was below 0.1 µM. For `COc1ccc2nc(C(F)(F)F)n(CC(=O)N3CCN(Cc4cnn(C)c4)CCC3c3ncc(-c4cc5ccccc5nc4OC)[nH]3)c2c1` (stereo not drawn) the value was 0.1 to 0.5 µM; for `CCN(C1CCOC1)[C@H]1CCN(C(=O)Cn2c(C(F)(F)F)nc3ccc(OC)cc32)[C@H](c2ncc(-c3cc4ccccc4nc3OC)[nH]2)C1` (stereo partly drawn) [1-((2S,4S)-4-(ethyl(tetrahydrofuran-3-yl)amino)-2-(5-(2-methoxyquinolin-3-yl)-1H-imidazol-2-yl)piperidin-1-yl)-2-(6-methoxy-2-(trifluoromethyl)-1H-benzo[d]imidazol-1-yl)ethan-1-one], below 0.1 µM; for `COc1nc2ccccc2cc1-c1cnc(C2CN(CC3CCOC3)CCN2C(=O)c2ccnc3ccccc23)[nH]1` (stereo not drawn), 1.01 to 5 µM. For `COc1nc2ccccc2cc1-c1cnc(C2CN(C(C)C)CCN2C(=O)Cc2ccccc2)[nH]1` (stereo not drawn), the concentration giving a half-maximal response (EC50) was in the range of 1.01 to 5 µM. For `COc1nc2ccccc2cc1-c1cnc(C2CN(C(=O)OCc3ccccc3)CCN2C(=O)Cc2c(C)[nH]c3ccc(F)cc23)[nH]1` (stereo not drawn), the EC50 is 1.01 to 5 µM. For `COc1nc2ccccc2cc1-c1cnc([C@@H]2CN(CC3CCOC3)CCN2C(=O)Cn2c(C)nc3ccc(C(F)(F)F)cc32)[nH]1` (stereo partly drawn) [1-((2S)-2-(5-(2-methoxyquinolin-3-yl)-1H-imidazol-2-yl)-4-((tetrahydrofuran-3-yl)methyl)piperazin-1-yl)-2-(2-methyl-6-(trifluoromethyl)-1H-benzo[d]imidazol-1-yl)ethan-1-one] the value was below 0.1 µM; for `COc1ccc2nc(C(F)(F)F)n(CC(=O)N3CCN(C4CCN(C)CC4)C[C@H]3c3ncc(-c4cc5ccccc5nc4OC)[nH]3)c2c1`, 0.1 to 0.5 µM. For `COc1nc2ccccc2cc1-c1cnc([C@@H]2CN(Cc3cncnc3)CCN2C(=O)Cn2c(C(F)(F)F)nc3ccccc32)[nH]1` [(S)-1-(2-(5-(2-methoxyquinolin-3-yl)-1H-imidazol-2-yl)-4-(pyrimidin-5-ylmethyl)piperazin-1-yl)-2-(2-(trifluoromethyl)-1H-benzo[d]imidazol-1-yl)ethan-1-one] the value was below 0.1 µM; for `COc1ccc2nc(C(F)(F)F)n(CC(=O)N3CCN(C)CCC3c3ncc(-c4cc5ccccc5nc4OC)[nH]3)c2c1` (stereo not drawn), 0.51 to 1 µM.

With `CN1CCN(C(=O)Cc2noc3ccccc23)C(c2ncc(-c3ccc4ccccc4c3)[nH]2)C1` (stereo not drawn), the EC50 lay within 1.01 to 5 µM. For `COc1nc2ccccc2cc1-c1cnc(C2CS(=O)(=O)CCN2C(=O)Cn2nc(C)c3ccccc3c2=O)[nH]1` (stereo not drawn) the value was 1.01 to 5 µM; for `COc1ccc(-c2ccc(C(=O)N3CCN(CC4CCOC4)CC3c3ncc(-c4cc5ccccc5nc4OC)[nH]3)o2)cc1` (stereo not drawn), 1.01 to 5 µM. For `COc1ccc2nc(C)n(CC(=O)N3CCN(CC4CCOC4)C[C@H]3c3ncc(-c4cc5ccccc5cn4)[nH]3)c2c1` (stereo partly drawn) [1-((2S)-2-(5-(isoquinolin-3-yl)-1H-imidazol-2-yl)-4-((tetrahydrofuran-3-yl)methyl)piperazin-1-yl)-2-(6-methoxy-2-methyl-1H-benzo[d]imidazol-1-yl)ethan-1-one] the value was 0.1 to 0.5 µM. As for `CCCCCCN1CCN(C(=O)Cc2c[nH]c3ccc(O)cc23)C(c2ncc(-c3ccc4ccccc4c3)[nH]2)C1` (stereo not drawn), the EC50 was 1.01 to 5 µM. For `COc1ccc2nc(C(F)(F)F)n(CC(=O)N3CCN(CCc4cnoc4)C[C@H]3c3ncc(-c4cc5ccccc5nc4OC)[nH]3)c2c1` [(S)-1-(4-(2-(isoxazol-4-yl)ethyl)-2-(5-(2-methoxyquinolin-3-yl)-1H-imidazol-2-yl)piperazin-1-yl)-2-(6-methoxy-2-(trifluoromethyl)-1H-benzo[d]imidazol-1-yl)ethan-1-one] the value was below 0.1 µM. For `Cn1cc(CC(=O)N2CCN(Cc3ccccc3)CC2c2ncc(-c3ccc4ccccc4c3)[nH]2)c2ccccc21` (stereo not drawn) the value was 1.01 to 5 µM; for `COc1nc2ccccc2cc1-c1cnc([C@@H]2CN(Cc3ccccc3)CCN2C(=O)Cn2c(C(F)(F)F)nc3ccccc32)[nH]1` [(S)-1-(4-benzyl-2-(5-(2-methoxyquinolin-3-yl)-1H-imidazol-2-yl)piperazin-1-yl)-2-(2-(trifluoromethyl)-1H-benzo[d]imidazol-1-yl)ethan-1-one], below 0.1 µM. In the case of `COc1ccc2nc(C(F)(F)F)n(CC(=O)N3CC[C@@H](NC4CCOC4)C[C@H]3c3ncc(-c4cc5ccccc5nc4OC)[nH]3)c2c1` (stereo partly drawn), the EC50 is 0.1 to 0.5 µM. For `COc1ccc2[nH]c(C)c(CC(=O)N3CCCN(C)CC3c3ncc(-c4ccc5ccccc5c4)[nH]3)c2c1` (stereo not drawn) [2-(5-methoxy-2-methyl-1H-indol-3-yl)-1-(4-methyl-2-(5-(naphthalen-2-yl)-1H-imidazol-2-yl)-1,4-diazepan-1-yl)ethan-1-one] the value was 1.01 to 5 µM; for `COc1ccc2nc(C)n(CC(=O)N3CCN(Cc4cnccn4)C[C@H]3c3ncc(-c4cc5ccccc5nc4OC)[nH]3)c2c1` [(S)-2-(6-methoxy-2-methyl-1H-benzo[d]imidazol-1-yl)-1-(2-(5-(2-methoxyquinolin-3-yl)-1H-imidazol-2-yl)-4-(pyrazin-2-ylmethyl)piperazin-1-yl)ethan-1-one], below 0.1 µM; for `CN1CCN(C(=O)Cc2cnc3ccccc3c2)C(c2ncc(-c3ccc4ccccc4c3)[nH]2)C1` (stereo not drawn), 1.01 to 5 µM. Turning to `COc1ccc2nc(C)n(CC(=O)N3CCN(CCn4cccn4)C[C@H]3c3ncc(-c4cc5ccccc5nc4OC)[nH]3)c2c1`, the EC50 fell in the range of 0.1 to 0.5 µM. For `COc1ccc2nc(C(F)(F)F)n(CC(=O)N3CC[C@H](NC4CC(OC)C4)C[C@H]3c3ncc(-c4cc5ccccc5nc4OC)[nH]3)c2c1` (stereo partly drawn) [2-(6-methoxy-2-(trifluoromethyl)-1H-benzo[d]imidazol-1-yl)-1-((2S,4S)-4-((3-methoxycyclobutyl)amino)-2-(5-(2-methoxyquinolin-3-yl)-1H-imidazol-2-yl)piperidin-1-yl)ethan-1-one] the value was below 0.1 µM; for `COc1ccc2c(c1)C(CC(=O)N1CCN(CC3CC3)CC1c1ncc(-c3ccc4ccccc4c3)[nH]1)C(=O)N2` (stereo not drawn), 1.01 to 5 µM; for `COc1ccc2nc(C)n(CC(=O)N3CCN(Cc4cn(C)nn4)C[C@H]3c3ncc(-c4cc5ccccc5nc4OC)[nH]3)c2c1`, 0.51 to 1 µM. For `COc1ccc2nc(C(F)(F)F)n(CC(=O)N3CCN(Cc4cocn4)CCC3c3ncc(-c4cc5ccccc5nc4OC)[nH]3)c2c1` (stereo not drawn) [2-(6-methoxy-2-(trifluoromethyl)-1H-benzo[d]imidazol-1-yl)-1-(7-(5-(2-methoxyquinolin-3-yl)-1H-imidazol-2-yl)-4-(oxazol-4-ylmethyl)-1,4-diazepan-1-yl)ethan-1-one] the value was below 0.1 µM; for `COc1ccc2nc(C(F)(F)F)n(CC(=O)N3CCN(CCn4cnnc4)C[C@H]3c3ncc(-c4cc5ccccc5nc4OC)[nH]3)c2c1`, 1.01 to 5 µM; for `COc1ncc(CN2CCN(C(=O)Cc3c(C)[nH]c4ccc(F)cc34)C(c3ncc(-c4cc5ccccc5nc4OC)[nH]3)C2)cn1` (stereo not drawn), 0.1 to 0.5 µM. With `COc1nc2ccccc2cc1-c1cnc([C@@H]2CN(C[C@@H]3CCOC3)CCN2C(=O)Cn2c(C(F)(F)F)nc3ccccc32)[nH]1` (single isomer, unassigned), the EC50 is below 0.1 µM. For `COc1ccc2nc(C)n(CC(=O)N3CCN(CC4CCOC4)C[C@H]3c3ncc(-c4ccc5ncsc5c4)[nH]3)c2c1` (stereo partly drawn) [1-((2S)-2-(5-(benzo[d]thiazol-6-yl)-1H-imidazol-2-yl)-4-((tetrahydrofuran-3-yl)methyl)piperazin-1-yl)-2-(6-methoxy-2-methyl-1H-benzo[d]imidazol-1-yl)ethan-1-one] the value was 1.01 to 5 µM.

`COc1ccc2nc(C(F)(F)F)n(CC(=O)N3CC[C@H](N[C@@H]4CCOC4)C[C@H]3c3ncc(-c4cc5ccccc5nc4OC)[nH]3)c2c1` [2-(6-methoxy-2-(trifluoromethyl)-1H-benzo[d]imidazol-1-yl)-1-((2S,4S)-2-(5-(2-methoxyquinolin-3-yl)-1H-imidazol-2-yl)-4-(((R)-tetrahydrofuran-3-yl)amino)piperidin-1-yl)ethan-1-one]: the EC50 is below 0.1 µM.

For `O=C(Cc1c[nH]c2ccc(O)cc12)N1CCN(CC2CC2)CC1c1ncc(-c2ccc3ccccc3c2)[nH]1` (stereo not drawn), the 50% effective concentration (EC50) is 1.01 to 5 µM. As for `COc1ccc2nc(C)n(CC(=O)N3CC[C@H](NCC4CCOC4)C[C@H]3c3ncc(-c4cc5ccccc5nc4OC)[nH]3)c2c1` (stereo partly drawn), the EC50 was in the range of 1.01 to 5 µM. For `COc1ccc2nc(C(F)(F)F)n(CC(=O)N3CCN(Cc4nccs4)C[C@H]3c3ncc(-c4cc5ccccc5nc4OC)[nH]3)c2c1` [(S)-2-(6-methoxy-2-(trifluoromethyl)-1H-benzo[d]imidazol-1-yl)-1-(2-(5-(2-methoxyquinolin-3-yl)-1H-imidazol-2-yl)-4-(thiazol-2-ylmethyl)piperazin-1-yl)ethan-1-one] the value was below 0.1 µM; for `COc1ccc2nc(C)n(CC(=O)N3CCN(CC4CCOC4)C[C@H]3c3ncc(-c4ccc5ncccc5c4)[nH]3)c2c1` (stereo partly drawn), 1.01 to 5 µM.

Turning to `CCn1cc(CN2CCC(c3ncc(-c4cc5ccccc5nc4OC)[nH]3)N(C(=O)Cn3c(C(F)(F)F)nc4ccc(OC)cc43)CC2)cn1` (stereo not drawn), the EC50 lay within 0.51 to 1 µM.
